Measurements published in paper PMC10385850, “Modified Hederagenin Derivatives Demonstrate Ex Vivo Anthelmintic Activity against Fasciola hepatica” (Pharmaceutics, 2023).

Legend:
[1] = test system: F. hepatica newly excysted juveniles (NEJs), Italian strain; experiment: Ex vivo screen against newly excysted juveniles (NEJs), phenotype and motility scoring; format: cell-based, Fasciola hepatica; conditions: 10 µM; for Average phenotype of 25 NEJs with 95% CI, 24 hours / Average phenotype of 25 NEJs with 95% CI, 48 hours / Average phenotype of 25 NEJs with 95% CI, 72 hours: ultrastructure score 1 normal to 6 dead or dissolved; for Activity against NEJs (first screen), in words: 72 h co-culture
In short: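 Newly excysted juveniles of the Italian strain of F. hepatica were obtained by excysting metacercariae and exposed ex vivo to test compounds at 10 μM final concentration in 0.1% DMSO. Controls were 0.1% DMSO (negative) and 10 μM TCBZ in 0.1% DMSO (positive). Motility was scored from 1 (good/normal) to 5 (no movement), and ultrastructural phenotype changes were scored with an established matrix.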

[2] = test system: wild strain adult F. hepatica; experiment: Ex vivo motility assay on adult liver flukes (wild strain); format: cell-based, Fasciola hepatica; conditions: 40 µM; for Effect on wild strain adult fluke motility, in words: 72 h; for Average motility of 4 parasites with 95% CI at 72 hour time point: wild strain adult flukes, score 1 good/normal to 6 no movement or dead
In short: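 Wild-strain adult F. hepatica of unknown provenance (n = 4 per condition) were exposed ex vivo to 40 µM compound in 0.4% DMSO for 72 h. Motility was scored from 1 (normal) to 6 (no movement/dead).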

[3] = test system: immature F. hepatica flukes (Italian strain); experiment: Ex vivo motility assay on immature liver flukes (Italian strain), single concentration and dose response; format: cell-based, Fasciola hepatica; conditions: 40 µM; for Average motility of 4 parasites with 95% CI at 24 hour time point / Average motility of 4 parasites with 95% CI at 48 hour time point / Average motility of 4 parasites with 95% CI at 72 hour time point: immature flukes; for Average motility of 4 parasites with 95% CI at 24 hour time point: score 1 normal to 5 no movement or death; for Average motility of 4 parasites with 95% CI at 48 hour time point / Average motility of 4 parasites with 95% CI at 72 hour time point: score 1 to 5; for Effect on immature fluke motility, in words: by 72 h
Procedure: The six selected compounds (at 40 µM in 0.4% DMSO) were evaluated on immature flukes (n = 4/condition) at 24, 48 and 72 h (Table S4). The protocol for culturing and scoring (motility) of these life stages have been previously described. Due to restricted numbers of immature worms, a dose response assay was conducted only for MC042. Here, immature worms (n = 2/concentration tested) were screened against descending concentrations of MC042 (40 µM, 13.3 µM and 4.4 µM); motility scores were recorded at 24, 48 and 72 h (Table S5). The scoring pattern used is identical to that described for NEJs.

[4] = test system: adult F. hepatica flukes (Italian strain); experiment: Ex vivo dose response motility assay on adult liver flukes (Italian strain); format: cell-based, Fasciola hepatica; conditions: for Selectivity Index (SI) on Adult Flukes SI=CC50/EC50, 72 hour: CC50 in MDBK cells (24 h) / EC50 adult flukes 72 h; for EC50: Fasciola hepatica, adult flukes, motility, read-out: EC50 with 95% CI on Adult Flukes (motility), 72 hour; for Effect on adult fluke (Italian strain) movement, in words: dose response, MC042 statement at 40 μM after 72 h
Procedure: The collection, ex vivo culturing and screening of adult liver fluke (Italian strain; n = 3/condition) was previously described. Dose response assays (40 µM, 13.3 µM and 4.4 µM) were conducted for MC014, MC042, MC035, MC055 and MC062 with motility scores recorded at 24, 48 and 72 h (Table S6).

[5] = MTT cell viability assay on MDBK cells; format: cell-based, bovine; conditions: bovine, MDBK cells (Madin–Darby bovine kidney); MDBK cells, MTT, 24 h exposure; read-out: CC50 with 95% CI on MDBK cells (cytotoxicity)
Procedure: MTT cell viability assays were performed on Madin–Darby bovine kidney (MDBK cells) for the five selected hederagenin derivatives (MC014, MC035, MC042, MC055 and MC062) using final concentrations of 100 μM, 75 μM, 50 μM, 25 μM, 10 μM, 5 μM and 1 μM (in 1% DMSO). Negative (1% v/v Triton X-100, Sigma-Aldrich, UK) and positive (1% v/v DMSO or media only) controls were included. The protocol was followed as previously described. Absolute EC50 values were calculated from the corrected absorbance of replicates by non-linear regression, after log transformation of concentrations and data normalization (where DMSO values represents 0% inhibition and TX-100 values represent 100% inhibition) using GrapPad Prism 8.

[6] = test system: F. hepatica; parameters: method as in PMID 4034744; conditions: cited from earlier work
[7] = 4.4 µM, adult flukes Italian strain, score 1 to 6
[8] = adult flukes Italian strain, score 1 to 6
[9] = 72 h, adult flukes Italian strain, score 1 to 6

Row | EC50 ([4]; 72 h) [µM] | SMILES | Average phenotype of 25 NEJs with 95% CI, 24 hours ([1]; 24 h) | Average phenotype of 25 NEJs with 95% CI, 48 hours ([1]; 48 h) | Average phenotype of 25 NEJs with 95% CI, 72 hours ([1]; 72 h) | Activity against NEJs (first screen), in words [1] | Effect on wild strain adult fluke motility, in words [2] | Average motility of 4 parasites with 95% CI at 72 hour time point [2] | Average motility of 4 parasites with 95% CI at 24 hour time point [3] | Average motility of 4 parasites with 95% CI at 48 hour time point [3] | Average motility of 4 parasites with 95% CI at 72 hour time point [3] | Effect on immature fluke motility, in words [3] | Average motility of 3 parasites treated with 4.4 µM, 24 hours [4, 7] | Average motility of 3 parasites treated with 4.4 µM, 48 hours [4, 7] | Average motility of 3 parasites treated with 13.3 µM, 24 hours [4, 8] | Average motility of 3 parasites treated with 13.3 µM, 48 hours [4, 8] | Average motility of 3 parasites treated with 13.3 µM, 72 hours [4, 9] | Average motility of 3 parasites treated with 40 µM, 24 hours [4, 8] | Average motility of 3 parasites treated with 40 µM, 48 hours [4, 8] | Average motility of 3 parasites treated with 40 µM, 72 hours [4, 9] | Selectivity Index (SI) on Adult Flukes SI=CC50/EC50, 72 hour [4] | further results
1 | 6.06 | CC1(C)CC[C@]2(NC(=O)N3CCCC3)CC[C@]3(C)C(=CCC4[C@@]5(C)CC[C@H](O)[C@@](C)(CO)C5CC[C@]43C)C2C1 (stereo partly drawn) [MC055, N-((4aS,6aS,6bR,9R,10S,12aR)-10-Hydroxy-9-(hydroxymethyl)-2,2,6a,6b,9,12a-hexamethyl-1,3,4,5,6,6a,6b,7,8,8a,9,10,11,12,12a,12b,13,14b-octadecahydropicen-4a(2H)-yl)pyrrol-idine-1-carboxamide] | 6.00 (6.0;6.0) | 6.00 (6.0;6.0) | 6.00 (6.0;6.0) | maximal alterations to both phenotype/ultrastructure and motility | partial paralysis | 5.25 (4.7;5.7) | 2.75 (1.8;3.6) | 5.00 (5.0;5.0) | 5.00 (5.0;5.0) | paralyzed the assayed immature flukes | 1.00 (1.0;1.0) | 1.00 (1.0;1.0) | 1.00 (1.0;1.0) | 1.00 (1.0;1.0) | 4.66 (3.3;5.9) | 3.00 (3.0;3.0) | 3.66 (3.0;4.3) | 5.00 (5.0;5.0) | 5.72 | Average motility of 25 NEJs with 95% CI, 24 hours ([1]; 24 h, motility score 1 good/normal to 5 no movement): 5.00 (5.0;5.0); Average motility of 25 NEJs with 95% CI, 48 hours ([1]; 48 h, motility score 1 good/normal to 5 no movement): 5.00 (5.0;5.0); Average motility of 25 NEJs with 95% CI, 72 hours ([1]; 72 h, motility score 1 good/normal to 5 no movement): 5.00 (5.0;5.0); Average motility of 3 parasites treated with 4.4 µM, 72 hours ([4]; 4.4 µM, 72 h, adult flukes Italian strain, score 1 to 6): 3.00 (3.0;3.0); Effect on adult fluke (Italian strain) movement, in words [4]: Decreased movement; CC50 at 24 h [5]: 34.7 µM
2 | 5.61 | CN1CCN(C(=O)N[C@]23CCC(C)(C)CC2C2=CCC4[C@@]5(C)CC[C@@H]6OC(C)(C)OC[C@@]6(C)C5CC[C@@]4(C)[C@]2(C)CC3)CC1 (stereo partly drawn) [MC062, 4-Methyl-N-((4aR,6aR,6bS,8aS,14bR,16aS)-2,2,4a,6a,6b,11,11,14b-octamethyl-4a,5,6,6a, 6b,7,8,9,10,11, 12,12a,14,14a,14b,15,16,16a-octadecahydro-4H-piceno[3,4-d][1,3]dioxin-8a(4bH)-yl)piperazine-1-carboxamide] | 6.00 (6.0;6.0) | 6.00 (6.0;6.0) | 6.00 (6.0;6.0) | maximal alterations to both phenotype/ultrastructure and motility | partial paralysis | 5.00 (5.0;5.0) | 5.00 (5.0;5.0) | 5.00 (5.0;5.0) | 5.00 (5.0;5.0) | paralyzed the assayed immature flukes | 1.00 (1.0; 1.0) | 1.00 (1.0; 1.0) | 1.00 (1.0; 1.0) | 1.66 (1.0; 2.3) | 5.00 (5.0; 5.0) | 3.00 (3.0;3.0) | 4.00 (4.0;4.0) | 5.00 (5.0;5.0) | 2.43 | Effect on adult fluke (Italian strain) movement, in words [4]: Decreased movement; CC50 at 24 h [5]: 13.7 µM
3 |  | C[C@@H]1O[C@@H](O[C@H]2[C@H](O[C@H]3CC[C@@]4(C)[C@@H](CC[C@]5(C)[C@@H]4CC=C4[C@@H]6CC(C)(C)CC[C@]6(C(=O)O)CC[C@]45C)[C@]3(C)CO)OC[C@H](O)[C@@H]2O)[C@H](O)[C@H](O)[C@H]1O [α-Hederin] |  |  |  |  |  |  |  |  |  |  |  |  |  |  |  |  |  |  |  | Activity against F. hepatica, in words [6]: lethal activity
